Measured values taken from ChEMBL document CHEMBL4422644, “Synthesis and evaluation of α-aminoacyl amides as antitubercular agents effective on drug resistant tuberculosis” (Eur J Med Chem, 2019).
In brackets after ≈: the same amount, converted by molar mass.

What was measured:
[1] = tested on: Escherichia coli; test: Antibacterial activity against Escherichia coli ATCC 25922 after 24 hrs; type: functional; settings: ATCC 25922, 24 h
[2] = tested on: Mycobacterium tuberculosis; test: Antitubercular activity against Mycobacterium tuberculosis H37Rv after 7 days by alamar blue assay; type: functional; settings: 168 h
[3] = tested on: MCF7; test: Cytotoxicity against human MCF7 cells after 24 hrs by MTT assay; type: functional, cell-based; settings: MCF7, 24 h
[4] = Cytotoxicity against […] B16 cells after 24 hrs by MTT assay; type: functional, cell-based; settings: B16, 24 h
[5] = tested on: DU-145; test: Cytotoxicity against human DU145 cells after 24 hrs by MTT assay; type: functional, cell-based; settings: DU-145, 24 h
[6] = tested on: Acinetobacter baumannii; test: Antibacterial activity against Acinetobacter baumannii ATCC BAA-1605 after 24 hrs; type: functional; settings: ATCC BAA-1605, 24 h
[7] = tested on: Mycobacteroides chelonae; test: Antibacterial activity against Mycobacterium chelonae after 7 days by alamar blue assay; type: functional; settings: 168 h
[8] = tested on: HeLa; test: Cytotoxicity against human HeLa cells after 24 hrs by MTT assay; type: functional, cell-based
[9] = tested on: Mycolicibacterium fortuitum; test: Antibacterial activity against Mycobacterium fortuitum after 7 days by alamar blue assay; type: functional; settings: 168 h
[10] = Cytotoxicity against HEK cells after 24 hrs by MTT assay; type: cell-based; settings: Homo sapiens, HEK293, 24 h
[11] = tested on: Staphylococcus aureus; test: Antibacterial activity against Staphylococcus aureus ATCC 29213 after 24 hrs; type: functional; settings: ATCC 29213, 24 h
[12] = tested on: Klebsiella pneumoniae; test: Antibacterial activity against Klebsiella pneumoniae ATCC BAA-1705 after 24 hrs; type: functional; settings: ATCC BAA-1705, 24 h
[13] = tested on: CHO-K1; test: Cytotoxicity against CHOK1 cells after 24 hrs by MTT assay; type: cell-based; settings: Cricetulus griseus, CHO-K1, 24 h
[14] = tested on: A549; test: Cytotoxicity against human A549 cells after 24 hrs by MTT assay; type: functional, cell-based; settings: A549, 24 h
[15] = tested on: Mycobacteroides abscessus; test: Antibacterial activity against Mycobacterium abscessus after 7 days by alamar blue assay; type: functional; settings: 168 h
[16] = Selectivity index, ratio of IC50 for CHOK1 cells to MIC for Mycobacterium tuberculosis H37Rv; type: toxicity; settings: hamster, read-out: Selectivity Index
[17] = tested on: HepG2; test: Cytotoxicity against human HepG2 cells after 24 hrs by MTT assay; type: functional, cell-based; settings: HepG2, 24 h
[18] = tested on: Pseudomonas aeruginosa; test: Antibacterial activity against Pseudomonas aeruginosa ATCC 27853 after 24 hrs; type: functional; settings: ATCC 27853, 24 h

SMILES	MIC [1] [µM]	MIC [2] [µM]	IC50 [3] [µM]	IC50 [4] [µM]	IC50 [5] [µM]	MIC [6] [µM]	MIC [7] [µM]	IC50 [8] [µM]	MIC [9] [µM]	IC50 [10] [µM]	MIC [11] [µM]	MIC [12] [µM]	IC50 [13] [µM]	IC50 [14] [µM]	MIC [15] [µM]	selectivity ratio [16]	IC50 [17] [µM]	MIC [18] [µM]
Cc1ccc(N(C(=O)c2sc(C)nc2C)C(C(=O)NC2CCCCC2)c2ccc[nH]2)cc1 (stereo unspecified)	> 50	6.25 (≈ 2.82 µg/mL)	4.25	14.5	12.7	> 50	> 50	11.6	> 50	15.4	> 50	> 50	33.4	11.7	> 50	5.3	6.13	> 50
Cc1cccc(N(C(=O)c2ccncc2)C(C(=O)NC2CCCCC2)c2cccnc2)c1C (stereo unspecified)	> 50	3.12 (≈ 1.38 µg/mL)	6.14	19.8	20.2	> 50	> 50	11.2	> 50	86.1	> 50	> 50	171	11.8	> 50	11.3	12.7	> 50
Cc1ccc(N(C(=O)c2sc(C)nc2C)C(C(=O)NC2CCCCC2)c2c(F)cc(Br)cc2F)cc1 (stereo unspecified)	> 50	6.25 (≈ 3.6 µg/mL)	4.08	10.8	12.6	> 50	> 50	22.2	> 50	58.3	> 50	> 50	53.3	11.7	> 50	8.5	4.79	> 50
Cc1cccc(N(C(=O)c2ccc[nH]2)C(C(=O)NC2CCCCC2)c2cccnc2)c1C (stereo unspecified)	> 50	12.5 (≈ 5.38 µg/mL)	5.51	13.7	12.6	> 50	> 50	10	> 50	54.3	> 50	> 50	267	17.5	> 50	21.4	9.58	> 50
Cc1ccc(N(C(=O)c2c(C)noc2C)C(C(=O)NC2CCCCC2)c2cccnc2)cc1 (stereo unspecified)	> 50	6.12 (≈ 2.73 µg/mL)	5.39	40	11	> 50	> 50	18.2	> 50	82	> 50	> 50	112	12.9	> 50	17.9	10.3	> 50
Cc1cc(C)c(N(C(=O)c2sc(C)nc2C)C(C(=O)NC2CCCCC2)c2ccccc2)c(C)c1 (stereo unspecified)	> 50	3.25 (≈ 1.59 µg/mL)	3.56	11.7	11.7	> 50	> 50	10.9	> 50	51.2	> 50	> 50	25.9	2.75	> 50	8	6.37	> 50
Cc1cccc(N(C(=O)c2ccc[nH]2)C(C(=O)NC2CCCCC2)c2ccccc2)c1C (stereo unspecified)	> 50	12.5 (≈ 5.37 µg/mL)	3.58	12.3	11.2	> 50	> 50	14.2	> 50	116	> 50	> 50	134	6.83	> 50	10.7	11	> 50
